{
  "source": "paper PMC8072159",
  "about": "“5-Bis-(2,6-difluoro-benzylidene) Cyclopentanone Acts as a Selective 11β-Hydroxysteroid Dehydrogenase one Inhibitor to Treat Diet-Induced Nonalcoholic Fatty Liver Disease in Mice” (Frontiers in Pharmacology, 2021)",
  "key": {"11β-HSD1 [1]": {"biological_target": "T1, 11β-HSD1 (Rattus norvegicus, UniProt P16232)", "T1 construct": "from tissue; host or cells: liver microsomes of male Sprague Dawley rats, prepared in house", "T1 sequence (P16232 whole entry)": "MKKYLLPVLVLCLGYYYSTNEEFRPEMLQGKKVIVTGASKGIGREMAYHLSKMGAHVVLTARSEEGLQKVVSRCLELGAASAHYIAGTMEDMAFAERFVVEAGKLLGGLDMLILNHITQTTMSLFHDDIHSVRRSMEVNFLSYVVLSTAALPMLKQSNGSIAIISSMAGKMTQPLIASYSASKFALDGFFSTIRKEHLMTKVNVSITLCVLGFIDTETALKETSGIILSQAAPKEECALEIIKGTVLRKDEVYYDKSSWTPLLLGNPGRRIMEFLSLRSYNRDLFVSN", "assay": "11β-HSD1 reductive activity in rat liver microsomes", "type": "biochemical", "experimental": "(§1) Preparation of Rat and Mouse Liver and Kidney Microsomes\n(§2) The liver and kidney microsomes were prepared as previously described ([Guo et al., 2012]). Briefly, the tissue was homogenized in […] phosphate buffered saline (PBS) containing 0.25 M sucrose, and the nuclei and large cell debris were removed by centrifugation at 1500 g for 10 min. The supernatant was transferred to a tube and the mitochondria were removed by centrifugation at 10, 000 × g for 30 min. The supernatant was transferred to an ultracentrifuge tube and centrifuged twice at 105,000 × g, the resulting microsomal precipitate was collected. The protein content was measured by the BCA kit according to the manufacturer’s instruction. The protein concentration was adjusted to 20 mg/ml. These proteins were used to measure 11β-HSD1 and 11β-HSD2 activities. […]\n(§3) The reductive activity of 11β-HSD1 in rat, mouse, and human liver microsomes was measured as previously described ([Ge et al., 2005]). […] 11β-HSD1 activity was measured using 11-DHC or cortisone as a substrate. […] The inhibitory ability of the chemical relative to the control (DMSO solvent) was measured. […] The steroids in chloroform and methanol (90:10, v/v) were chromatographically separated on a thin layer plate, and radioactivity was measured using a scanning radiometer (System AR2000, Bioscan Inc., Washington, DC, United States). […]"}, "11β-HSD1 [2]": {"biological_target": "T1, 11β-HSD1", "assay": "11β-HSD1 activity in intact rat Leydig cells", "type": "cell-based", "settings": "read-out: IC50 rat Leydig cell 11β-HSD1", "experimental": "Isolation of Rat Adult Leydig Cells\nLeydig cells were isolated as previously described ([Ge et al., 2006]). Briefly, after a week of adjustment, eighteen 35-day-old Sprague Dawley rats were killed by asphyxiation with carbon dioxide (CO2). The testis was removed. The testis was perfused with collagenase solution through the testicular artery. The testis was digested with collagenase and DNase for 15 min, and the digested cells were filtered with nylon mesh, and the cells were separated under a Percoll gradient. The cells with density of 1.070–1.088 g/ml were collected and washed. The purity of the Leydig cell fraction was evaluated by histochemical staining of 3β-hydroxysteroid dehydrogenase using 0.4 mM etiocholanolone as a steroid substrate and 2 mM NAD + as a cofactor and tetranitroblue tetrazolium as the H^+ acceptor as previously described ([Payne et al., 1980]). More than 95% of Leydig cells are strongly stained. […] In brief, an aliquot of 10^5 cells/ml in a 0.5 ml test tube was mixed with 0.1 ml of 0.4% trypan blue at room temperature for 5 min and the cells were then loaded into a hemocytometer for counting, and the numbers of non-viable (staining) and viable (not stained) cells were counted. Viability was calculated as the percentage of viable cells divided by the total number of cells, and the viability of Leydig cells (intact Leydig cells) was over 99%. […]"}, "11β-HSD1 [3]": {"biological_target": "T2, 11β-HSD1 (Mus musculus, UniProt P50172)", "T2 construct": "from tissue; host or cells: mouse liver microsomes prepared in house (probably from Kunming mice)", "T2 sequence (P50172 whole entry)": "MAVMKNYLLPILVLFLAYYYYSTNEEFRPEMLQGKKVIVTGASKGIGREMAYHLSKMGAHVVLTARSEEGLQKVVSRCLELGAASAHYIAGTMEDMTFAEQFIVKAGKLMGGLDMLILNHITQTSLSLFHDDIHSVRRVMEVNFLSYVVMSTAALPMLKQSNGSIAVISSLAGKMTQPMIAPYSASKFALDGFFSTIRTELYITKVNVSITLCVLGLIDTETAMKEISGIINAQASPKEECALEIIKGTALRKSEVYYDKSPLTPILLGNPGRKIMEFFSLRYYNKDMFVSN", "assay": "11β-HSD1 reductive activity in mouse liver microsomes", "type": "biochemical", "experimental": "as §1, §2, §3"}},
  "data": [
    {"smiles": "O=C1/C(=C/c2c(F)cccc2F)CC/C1=C\\c1c(F)cccc1F", "note": "[WZS08, (2E,5E)-2,5-bis(2,6-difluorobenzylidene) Cyclopentanone]", "values": [
      {"measurement": "inhibition at 100 µM", "setting": "11β-HSD1 [1]; 100 μM, initial screening, read-out: 11β-HSD1 inhibition, rat enzyme", "value": "93.9 ± 0.42", "unit": "%"},
      {"measurement": "IC50", "setting": "11β-HSD1 [1]; rat liver microsomes, 25 nM 11DHC, NADPH", "value": 378, "unit": "nM"},
      {"measurement": "IC50", "setting": "11β-HSD1 [2]", "value": "170 ± 3.8", "unit": "nM"},
      {"measurement": "inhibition at 100 µM", "setting": "11β-HSD1 [3]; 100 μM, initial screening, read-out: 11β-HSD1 inhibition, mouse enzyme", "value": "94.5 ± 0.97", "unit": "%"},
      {"measurement": "IC50", "setting": "11β-HSD1 [3]; mouse liver microsomes, 25 nM 11DHC, NADPH", "value": 244, "unit": "nM"}
    ]}
  ]
}
